What is called pKi is the Ki on a negative log10 scale, so that one unit is a factor of ten. A lower pKi goes with a large Ki.

SMILES strings stand for the structures. pKi: −log10 of the molar value.

This test concerns the target C-C chemokine receptor type 2 (Homo sapiens, UniProt P41597). Briefly: Inhibition of [125I]MCP-1 binding to the cloned C-C chemokine receptor type 2B expressed in CHO cells.

Sequence of C-C chemokine receptor type 2 (P41597 whole entry): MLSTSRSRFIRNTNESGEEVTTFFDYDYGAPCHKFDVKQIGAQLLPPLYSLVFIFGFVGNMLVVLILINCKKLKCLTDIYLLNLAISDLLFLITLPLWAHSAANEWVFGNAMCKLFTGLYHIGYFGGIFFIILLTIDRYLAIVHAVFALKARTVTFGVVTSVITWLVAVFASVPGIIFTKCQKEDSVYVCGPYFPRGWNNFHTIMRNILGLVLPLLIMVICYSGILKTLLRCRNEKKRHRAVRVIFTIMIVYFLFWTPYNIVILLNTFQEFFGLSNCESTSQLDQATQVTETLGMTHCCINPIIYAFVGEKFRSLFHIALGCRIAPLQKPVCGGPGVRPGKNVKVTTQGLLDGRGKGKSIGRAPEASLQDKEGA

Consider `O=C(/C=C/c1ccc(Cl)c(Cl)c1)N[C@H]1CC[C@H](CN2CCC(c3c[nH]c4ccc(O)cc34)CC2)CC1` [3-(3,4-dichlorophenyl)-N-((1r,4r)-4-((4-(5-hydroxy-1H-indol-3-yl)piperidin-1-yl)methyl)cyclohexyl)acrylamide], for which the pKi was 6.50.

Values taken from BindingDB's records for doi:10.1016/s0960-894x(01)00397-3 (Glaxosmithkline, 2001).
